Measurements taken from PMC5974420, “Isospecific adenine DNA methyltransferases show distinct preferences towards DNA substrates” (Scientific Reports, 2018).

Tests used:
M.LlaCI = target: T1, M.LlaCI (Lactococcus lactis, UniProt O86267); assay: radiometric [3H]methyl transfer to DNA; assay type: biochemical; conditions: 0.2 µM [methyl-3H]SAM, 0.15 µM ds oligo (AAGCTT site), 10 mM Tris-HCl pH 7.0, 37 °C, 1 h; labelled compound
T1 construct: gene mllaci

M.HindIII = target: T2, M.HindIII (Haemophilus influenzae, UniProt P43871); conditions: 0.2 µM [methyl-3H]SAM, 0.15 µM ds oligo (AAGCTT site), 10 mM Tris-HCl pH 7.0, 37 °C, 1 h; labelled compound
T2 construct: gene hindIIIM
T2 sequence (P43871 whole entry): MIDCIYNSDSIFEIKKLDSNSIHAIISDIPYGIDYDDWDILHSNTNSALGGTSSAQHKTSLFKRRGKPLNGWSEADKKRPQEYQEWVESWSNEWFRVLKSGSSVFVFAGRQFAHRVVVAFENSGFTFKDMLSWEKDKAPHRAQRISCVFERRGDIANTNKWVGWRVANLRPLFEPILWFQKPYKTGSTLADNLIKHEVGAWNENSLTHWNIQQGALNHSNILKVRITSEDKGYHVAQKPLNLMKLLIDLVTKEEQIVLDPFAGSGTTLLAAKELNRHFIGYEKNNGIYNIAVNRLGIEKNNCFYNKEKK

purified protein = substrate: C[S+](CC[C@H](N)C(=O)O)C[C@H]1O[C@@H](n2cnc3c(N)ncnc32)[C@H](O)[C@@H]1O; assay: purified protein; conditions: 10 µM unmethylated ds oligo AAGCTT1/AAGCTT2 (AAGCTT site), 10 mM Tris-HCl pH 7.0, 37 °C, 5 min, 135 nM enzyme, labelled compound

T1 sequence (O86267 1-296): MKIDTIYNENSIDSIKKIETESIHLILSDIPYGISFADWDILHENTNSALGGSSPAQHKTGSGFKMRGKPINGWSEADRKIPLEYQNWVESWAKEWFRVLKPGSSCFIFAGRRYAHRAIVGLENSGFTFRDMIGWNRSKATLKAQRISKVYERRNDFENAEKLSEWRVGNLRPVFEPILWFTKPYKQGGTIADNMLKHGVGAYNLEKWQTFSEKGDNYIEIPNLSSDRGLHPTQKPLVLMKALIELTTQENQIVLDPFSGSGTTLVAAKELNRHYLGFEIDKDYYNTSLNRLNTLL

C[S+](CC[C@H](N)C(=O)O)C[C@H]1O[C@@H](n2cnc3c(N)ncnc32)[C@H](O)[C@@H]1O (stereo partly drawn) [AdoMet]
radiometric [3H]methyl transfer to DNA (M.LlaCI): monitoring transfer of the radioactively labelled methyl groups from [^3H]AdoMet to DNA | radiometric [3H]methyl transfer to DNA (M.HindIII): monitoring transfer of the radioactively labelled methyl groups from [^3H]AdoMet to DNA

B1: M.EcoVIII (Escherichia coli) (protein)
chain: MLNKIQLPDEIKKNTVTNGNSISLIKKLPSQYAHLILSDIPYGIGAEDWDVLHNNSNNAYLGSSPAQKNAGAIFKKRGKPINGWSEADKKIPLEYQQWCEEWATEWFRVLKPGASAIIFAGRRFSHRCICAMEDAGFNLRDIIAWMRVKAPHRAQRLSCVYERRGDTLNAEKWNGWRVGNLQPTFEPILWFSKPYKIGGTIADNAIIHGVGAYNQDAFVARNGKPENVITAGFSSNESGLHPTQKPVALMKTLIELTTQKGQLVIDPFSGSGSTLVAAKDLGRDYIGFEINPTYVETSIKRLNK
Km (purified protein): 0.27 ± 0.006 µM
